Patent US11253525B2, “Inhibitors of indoleamine 2,3-dioxygenase and methods of their use” (BRISTOL-MYERS SQUIBB COMPANY, priority 2018, dated 2022)

molecular target: T1, indoleamine 2,3-dioxygenase (IDO) (Homo sapiens, UniProt P14902); assay: HeLa cell-based indoleamine 2,3-dioxygenase (IDO) assay, kynurenine production; details: HeLa cells, IFNγ 25 ng/mL, 48 hour incubation; read-out: IDO Hela IC50
T1 construct: replaced with media containing IFNγ (#285-IF/CF, R&D Systems) at a final concentration of 25 ng/mL; endogenous in cells; host or cells: HeLa (ATCC CCL-2), IFN-gamma stimulated
T1 sequence (P14902 whole entry): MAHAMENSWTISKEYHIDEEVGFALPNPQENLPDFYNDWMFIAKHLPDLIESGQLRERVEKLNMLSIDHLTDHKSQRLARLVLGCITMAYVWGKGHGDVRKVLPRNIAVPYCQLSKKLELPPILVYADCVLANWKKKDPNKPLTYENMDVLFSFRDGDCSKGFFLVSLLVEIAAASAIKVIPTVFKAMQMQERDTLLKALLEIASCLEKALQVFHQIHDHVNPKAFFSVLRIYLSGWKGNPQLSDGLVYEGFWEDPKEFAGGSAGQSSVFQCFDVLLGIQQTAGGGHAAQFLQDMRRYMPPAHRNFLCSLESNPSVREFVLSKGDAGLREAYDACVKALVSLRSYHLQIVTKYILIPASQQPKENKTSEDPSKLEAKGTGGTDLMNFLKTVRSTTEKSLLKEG
Description: Assessment of Inhibitor Activity in HeLa Cell-Based Indoleamine 23-Dioxygenase (IDO) Assay
Cells were maintained in a humidified incubator at 37° C. in 5% CO2.
IDO activity was assessed as a function of kynurenine production as follows: HeLa cells were seeded in a 96-well culture plate at a density of 5,000 cells/well and allowed to equilibrate overnight. […] A serial dilution of each test compound was added to the cells in a total volume of 200 μL of culture medium. After a further 48 hour incubation, 170 μL of supernatant was transferred from each well to a fresh 96-well plate. 12.1 μL of 6.1N trichloroacetic acid (#T0699, Sigma-Aldrich) was added to each well and mixed, followed by incubation at 65° C. for 20 minutes to hydrolyze N-formylkynurenine, the product of indoleamine 2,3-dioxygenase, to kynurenine. The reaction mixture was then centrifuged for 10 mins at 500×g to sediment the precipitate. 100 μL of the supernatant was transferred from each well to a fresh 96-well plate. […] Kynurenine concentrations were determined by measuring absorbance at 480 nm and calibrating against an L-kynurenine (#K8625, Sigma-Aldrich) standard curve using a SPECTRAMAX® M2e microplate reader (Molecular Devices). The percentage activity at each inhibitor concentration was determined and IC50 values assessed using nonlinear regression.

SMILES | IC50 [nM]
CCO[C@H](c1ccc([C@H](CC)CC(=O)O)cc1Nc1cnc(C)nc1)C(F)(F)F (relative stereo) [Example 17, (R)-3-(4-((R)-1-ethoxy-2,2,2-trifluoroethyl)-3-((2-methylpyrimidin-5-yl)amino)phenyl)pentanoic acid] | 130
CCO[C@H](c1ccc([C@H](CC)CC(=O)O)cc1Nc1cnc(CC)nc1)C(F)(F)F (relative stereo) [Example 18, (R)-3-(4-((R)-1-ethoxy-2,2,2-trifluoroethyl)-3-((2-ethylpyrimidin-5-yl)amino)phenyl)pentanoic acid] | 40
CCOc1ncc(Nc2cc([C@@H](CC)CC(=O)O)ccc2[C@@H](OCC)C(F)(F)F)cn1 (relative stereo) [Example 24, (S)-3-(4-((R)-1-ethoxy-2,2,2-trifluoroethyl)-3-((2-ethoxypyrimidin-5-yl)amino)phenyl)pentanoic acid] | 10
CCO[C@@H](c1ccc([C@H](CC)CC(=O)O)cc1Nc1cnc(OC)cn1)C(F)(F)F (relative stereo) [Example 36, (R)-3-(4-((S)-1-ethoxy-2,2,2-trifluoroethyl)-3-((5-methoxypyrazin-2-yl)amino)phenyl)pentanoic acid] | 30
CCO[C@H](c1ccc([C@H](COC)CC(=O)O)cc1Nc1cnc(OC)nc1)C(F)(F)F (relative stereo) [Example 54, 3-(4-(1-ethoxy-2,2,2-trifluoroethyl)-3-((2-methoxypyrimidin-5-yl)amino)phenyl)-4-methoxybutanoic Acid] | 100
CCO[C@H](c1ccc([C@H](COC)CC(=O)O)cc1Nc1ccc(C#N)cc1)C(F)(F)F (relative stereo) [Example 57, (R)-3-(3-((4-cyanophenyl)amino)-4-((R)-1-ethoxy-2,2,2-trifluoroethyl)phenyl)-4-methoxybutanoic acid] | 10
CCO[C@@H](c1ccc([C@H](COC)CC(=O)O)cc1Nc1ccc(C#N)c(F)c1)C(F)(F)F (relative stereo) [Example 70, (R)-3-(3-((4-cyano-3-fluorophenyl)amino)-4-((S)-1-ethoxy-2,2,2-trifluoroethyl)phenyl)-4-methoxybutanoic acid] | 30
CCO[C@@H](c1ccc([C@H](COC)CC(=O)O)cc1Nc1ccc(C#N)cc1)C(F)(F)F (relative stereo) [Example 73, (R)-3-(3-((4-cyanophenyl)amino)-4-((S)-1-ethoxy-2,2,2-trifluoroethyl)phenyl)-4-methoxybutanoic acid] | 10
CC[C@H](CC(=O)O)c1ccc([C@@H](OC)C(F)(F)F)c(Nc2cnc(C)nc2)c1 (relative stereo) [Example 90, (R)-3-(3-((2-methylpyrimidin-5-yl)amino)-4-((R)-2,2,2-trifluoro-1-methoxyethyl)phenyl)pentanoic acid] | 150
CCOc1ncc(Nc2cc([C@H](CC)CC(=O)O)ccc2[C@H](OC)C(F)(F)F)cn1 (relative stereo) [Example 95, (R)-3-(3-((2-ethoxypyrimidin-5-yl)amino)-4-((S)-2,2,2-trifluoro-1-methoxyethyl)phenyl)pentanoic acid] | 10
CCc1ncc(Nc2cc([C@@H](COC)CC(=O)O)ccc2[C@H](CC)N2CCOCC2)cn1 (relative stereo) [Example 102, (S)-3-(3-((2-ethylpyrimidin-5-yl)amino)-4-((S)-1-morpholinopropyl)phenyl)-4-methoxybutanoic acid] | 890
CC[C@H](c1ccc([C@@H](COC)CC(=O)O)cc1Nc1ccc(Cl)cc1)N1CCOCC1 (relative stereo) [Example 110, (S)-3-(3-((4-chlorophenyl)amino)-4-((R)-1-morpholinopropyl)phenyl)-4-methoxybutanoic acid] | 380
CC[C@H](CC(=O)O)c1ccc([C@@H](CC)N2CCOCC2)c(Nc2cnc(C)nc2)c1 (relative stereo) [Example 120, (R)-3-(3-((2-methylpyrimidin-5-yl)amino)-4-((R)-1-morpholinopropyl)phenyl)pentanoic acid] | 80
CC[C@H](CC(=O)O)c1ccc([C@@H](CC)N2CCOCC2)c(Nc2ccc(COC)nc2)c1 (relative stereo) [Example 121, (R)-3-(3-((6-(methoxymethyl)pyridin-3-yl)amino)-4-((R)-1-morpholinopropyl)phenyl)pentanoic acid] | 30
CC[C@@H](CC(=O)O)c1ccc([C@@H](CC)N2CCOCC2)c(Nc2cnc(C(F)(F)F)nc2)c1 (relative stereo) [Example 130, (S)-3-(4-((R)-1-morpholinopropyl)-3-((2-(trifluoromethyl)pyrimidin-5-yl)amino)phenyl)pentanoic acid] | 90
CCO[C@H](c1ccc([C@H](CC)CC(=O)O)cc1NC(=O)Nc1ccc(C)cc1)C(F)(F)F (single isomer, unassigned) [Example 7] | 60
CCO[C@H](c1ccc([C@H](CC)CC(=O)O)cc1NC(=O)Nc1ccc(Cl)cc1F)C(F)(F)F (single isomer, unassigned) [Example 9] | 10
CCO[C@H](c1ccc([C@H](CC)CC(=O)O)cc1Nc1cnc(OC)nc1)C(F)(F)F (single isomer, unassigned) [Example 10] | 20
CCOc1ncc(Nc2cc([C@H](CC)CC(=O)O)ccc2[C@@H](OCC)C(F)(F)F)cn1 (single isomer, unassigned) [Example 12] | 20
CCOc1cnc(Nc2cc([C@H](CC)CC(=O)O)ccc2[C@@H](OCC)C(F)(F)F)cn1 (single isomer, unassigned) [Example 13] | 10
CCO[C@H](c1ccc([C@H](CC)CC(=O)O)cc1Nc1cnc(OC)cn1)C(F)(F)F (single isomer, unassigned) [Example 14] | 10

same assay, conditions: HeLa cells, IFNγ 25 ng/mL, 48 hour incubation; read-out: IDO Hela IC50 class (A < 50, B < 250, C < 2000)

SMILES | IC50 [nM]
CCO[C@H](c1ccc([C@@H](CC)CC(=O)O)cc1Nc1ccc(F)cc1)C(F)(F)F (relative stereo) [Example 30, (S)-3-(4-((R)-1-ethoxy-2,2,2-trifluoroethyl)-3-((4-fluorophenyl)amino)phenyl)pentanoic acid] | < 50
CCO[C@H](c1ccc([C@@H](COC)CC(=O)O)cc1Nc1ncc(F)cn1)C(F)(F)F (relative stereo) [Example 64, (S)-3-(4-((R)-1-ethoxy-2,2,2-trifluoroethyl)-3-((5-fluoropyrimidin-2-yl)amino)phenyl)-4-methoxybutanoic acid] | 250 to 2000
CC[C@H](CC(=O)O)c1ccc([C@@H](OC)C(F)(F)F)c(Nc2ccc(C#N)cc2)c1 (relative stereo) [Example 89, (R)-3-(3-((4-cyanophenyl)amino)-4-((R)-2,2,2-trifluoro-1-methoxyethyl)phenyl)pentanoic acid] | < 50
CC[C@@H](c1ccc([C@@H](COC)CC(=O)O)cc1Nc1ccc(Cl)cc1)N1CCOCC1 (relative stereo) [Example 105, (S)-3-(3-((4-chlorophenyl)amino)-4-((S)-1-morpholinopropyl)phenyl)-4-methoxybutanoic acid] | < 50
CCc1ncc(Nc2cc([C@@H](COC)CC(=O)O)ccc2[C@@H](CC)N2CCOCC2)cn1 (relative stereo) [Example 107, (S)-3-(3-((2-ethylpyrimidin-5-yl)amino)-4-((R)-1-morpholinopropyl)phenyl)-4-methoxybutanoic acid] | 250 to 2000
CC[C@H](c1ccc([C@@H](COC)CC(=O)O)cc1Nc1ccc(COC)nc1)N1CCOCC1 (relative stereo) [Example 109, (S)-4-methoxy-3-(3-((6-(methoxymethyl)pyridin-3-yl)amino)-4-((R)-1-morpholinopropyl)phenyl)butanoic acid] | 250 to 2000
CC[C@H](c1ccc([C@@H](COC)CC(=O)O)cc1Nc1ccc(Cl)cc1)N1CCOCC1 (relative stereo) [Example 110, (S)-3-(3-((4-chlorophenyl)amino)-4-((R)-1-morpholinopropyl)phenyl)-4-methoxybutanoic acid] | 50 to 250
CC[C@H](CC(=O)O)c1ccc([C@@H](CC)N2CCOCC2)c(Nc2ccc(C#N)cc2)c1 (relative stereo) [Example 122, (R)-3-(3-((4-cyanophenyl)amino)-4-((R)-1-morpholinopropyl)phenyl)pentanoic acid] | < 50
CC[C@H](CC(=O)O)c1ccc([C@@H](CC)N2CCOCC2)c(Nc2ccc(Cl)cc2)c1 (relative stereo) [Example 123, (R)-3-(3-((4-chlorophenyl)amino)-4-((R)-1-morpholinopropyl)phenyl)pentanoic acid] | < 50
CC[C@@H](CC(=O)O)c1ccc([C@@H](CC)N2CCOCC2)c(Nc2ccc(COC)nc2)c1 (relative stereo) [Example 131, (S)-3-(3-((6-(methoxymethyl)pyridin-3-yl)amino)-4-((R)-1-morpholinopropyl)phenyl)pentanoic acid] | 250 to 2000
CC[C@@H](CC(=O)O)c1ccc([C@@H](CC)N2CCOCC2)c(Nc2ccc(OC(F)F)cn2)c1 (relative stereo) [Example 133, (S)-3-(3-((5-(difluoromethoxy)pyridin-2-yl)amino)-4-((R)-1-morpholinopropyl)phenyl)pentanoic acid] | 250 to 2000
CCO[C@H](c1ccc([C@H](CC)CC(=O)O)cc1Nc1ccc(C#N)cc1)C(F)(F)F (single isomer, unassigned) [Example 15] | < 50
